Laboratory results from patent US11180783B2, “Method for producing chiral amines” (VITO NV, priority 2017, dated 2021).

Key:
[1] = tested on: TA_v2; format: biochemical
Experimental: Reaction was performed in 600 mL volume containing 2 mg/mL of TA_v2 powder, 250 mM AD 6, 10 mM BA substrate (dissolved in DMSO) and 0.1 mM PLP in 100 mM CHES buffer, pH 9.5. The final DSMO concentration was 5% (v/v). After 16 h of reaction, 550 mL of reaction mixture was transferred into the membrane unit and 2 intermittent nanofiltration tests were performed. The remaining 50 mL of reaction mixture was used as control without filtration. After the first nanofiltration (6 h duration, DESAL® DK, 20 bar), the collected permeate and the retentate were mixed, and 5 mM of additional BA substrate were added. Additional substrate was added also to the control condition. After 16 h of reaction, the second nanofiltration was performed (5 h duration, DuraMem® 200, 20 bar). Reaction permeate and retentate samples were taken after distinct time periods and prepared for quantitative analysis.
Addition of BA (5 mM) was made to the enzymatic tank E-1 after 24 h reaction. The second nanofiltration was run after 39 h reaction (DuraMem® 200 membrane, 20 bar).

[2] = tested on: TA_3HMU; experiment: asymmetric amine synthesis (transamination) with TA_3HMU; format: biochemical, Ruegeria pomeroyi; conditions: for product formation from ketosubstrate with HMW amino donors: TA_3HMU, TLC or chiral GC analysis, no equilibrium shifting strategy; for BA conversion: crude extract lyophilized TA_3HMU (3 mg/mL), 25 times excess amine donor (250 mM)
Experimental: Asymmetric synthesis of chiral amines were performed using HMW amino donors and substrates 1a, 1b and 1c in the presence of TA_3HMU enzyme. […] However, performing the transamination reaction using substrates 1a or 1b, followed by a separation of the formed amine product using a membrane unit (8), according to advantageous aspects of the disclosure, will further shift the thermodynamic equilibrium to the product side of the reaction, thereby improving the product purity of the produced amine product.
Asymmetric amine synthesis experiments were performed using freeze-dried crude extract of TA_3HMU, provided by the company Enzymicals (Germany) and using PEG-A and PEG-C as amino donors (the activity of the enzyme being 970 mU/mg, photometric assay based on acetophenone detection). For a first test, a quite high amount of enzyme (12.5 mg/mL freeze dried powder, corresponding to about 6 mg/mL of total protein content) was used. In addition to poly ethylene glycol molecules (PEGs), the common and cheap LMW amino donor IPA was also investigated. Unlike PEGs, which can be retained by a porous (nanofiltration) membrane (3) with appropriate MWCO and/or pore size, the LMW amino donor IPA will also permeate forming the second solution (2).
Asymmetric amine synthesis experiments were also performed using amine transaminases TA_v2, purchased from c-LEcta GmbH, Leipzig, Germany. The purified enzyme was supplied as freeze-dried powder, the activity of TA_v2 being 1.73 U/mg. All reactions were performed in 1 mL volume containing 12.5-0.78 mg/mL of either TA_3HMU or TA_v2 powder, 10-500 mM amine donor (IPA, PEG-A and PEG-C, 10 mM BA model substrate (dissolved in DMSO) and 0.1 mM PLP in 100 mM CHES buffer, pH 9.5. The final DSMO concentration was 5% (v/v). […]
Substrate (BA) and product (MPPA) concentrations were determined by UHPLC (Thermo Scientific™) with UV detection at 194/210 nm. The chromatographic separation was achieved using 1 μL injection onto a C18 reversed-phase column (Waters Acquity UPLC® BEH C18 1.7 μm 2.1×50 mm). The column temperature was kept at 40° C. The gradient elution program is using mobile phase A 0.1% Formic Acid (FA) in Water (dH2O) and mobile phase B 0.1% FA in acetonitrile (ACN). The elution program was as follows: 0-4 min 99-30% A; 4-5 min 30-1% A; 5-5.1 min 1-99% A; 5.1-7.5 min 99% A; all at a flowrate of 400 μL/min. Amine donors AD 3 and AD 6 were analysed by HPLC with ELSD detector on Alltima HP C18 HL 5 μ, 4.6×250 mm. The eluents for PEGs analysis were: A) dH2O, 0.1% FA; B) ACN, 0.1% FA.
Furthermore, tests were conducted using different loadings of freeze-dried crude extract of TA_3HMU. Since the biotransformation could not be observed photometrically, continuous time-dependent following of the enzyme reaction was not possible. Therefore, laborious stopped enzyme assay providing only few measure points had to be employed. As expected, the initial reaction rate decreased when the enzyme loading was reduced. In presence of IPA donor amine, higher conversions were achieved. However, the reaction end-point decreased, reducing the enzyme amount (cf. FIG. 5.2c). […] Experimental conditions in FIG. 5.2: 10 mM BA; 250 mM AD; 0.1 mM PLP; 5% DMSO; 100 mM CHES buffer, pH 9.5, 30° C., 1000 rpm.
As already discussed hereinabove, using IPA as amine donor in transaminase reactions, a very high amount (e.g. 50-100 fold) amine donor excess is required, complicating downstream processing and possibly hampering the stability and activity of TAs (cf. e.g. Slabu, I. et al. in Catal. Today 306, 96-101 (2018); Savile, C. K. et al. in Science 329, 305-9 (2010); Dawood, A. W. H. et al. in ChemCatChem 10, 951-955 (2018)). TA_3HMU stability towards IPA and HMW ADs 3 and 6 was therefore explored. […] In contrast to IPA, in presence of bulky donor amines (cf. FIG. 5.3a and FIG. 5.3b). Experimental conditions in FIG. 5.3: 10 mM BA; 250 mM amine donor (AD 3, AD 6 or IPA); 0.1 mM PLP; 5% DMSO; 100 mM CHES buffer, pH 9.5, 30° C., 1000 rpm. […]

[3] = tested on: 3FCR; experiment: glycine oxidase assay, TA screening towards HMW amino donors; format: biochemical, Ruegeria sp. TM1040; parameters: key: 0: no activity detected; conditions: wildtype TA; 20 mM amino donor (2.5 mM α-MBA), 2.5 mM glyoxylate, CHES pH 9.5, 37° C., absorbance 498 nm
Experimental: (§1) The HMW amino donors listed in Table 1 were tested in a feasibility study for reaction with TA enzymes (the HMW amino donors being commercially available and relatively cheap). More particularly, in this study the acceptance of HMW amino donors by TA enzymes was investigated running a glycine oxidase assay (as described by WeiB et al. in Anal. Chem. 2014, 86, 11847-11853). Thereto, 25 wild type transaminases were selected from a library of enzymes. Transaminase selection was made on the basis of TAs availability, broad substrate and amino donor scope, and stability.
(§2) Final substrate concentration amounted to 2.5 mM glyoxylate, 20 mM large amino donor, 7.28 U/mL horseradish peroxidase, 0.12 mg/mL purified glycine oxidase, 3 mM 4-amino antipyrine, and 4.7 mM vanillic acid in CHES buffer (100 mM) with pH 9.5, in total reaction volumes of 150 μL. Cells with empty pET28a(+) vector were applied as negative control. A reaction using 2.5 mM α-MBA was applied as positive control.
(§3) The above (photometric) assay is semiquantitative: the increasing absorbance (slope in FIG. 4.1) correlates with enzyme activity. An accurate quantification, however, was difficult to be performed as the assay is a multi-enzyme reaction.
(§4) TA_3HMU was then further tested with three commercially available HMW Jeffamines® (AD 3, 4 and 6).

[4] = tested on: AspOry; experiment: as above; format: biochemical, Aspergillus oryzae; parameters: key: 0: no activity detected; conditions: wildtype TA; 20 mM amino donor (2.5 mM α-MBA), 2.5 mM glyoxylate, CHES pH 9.5, 37° C., absorbance 498 nm
Experimental: as §1, §2, §3, §4

[5] = tested on: 3HMU; experiment: as above; format: biochemical, Ruegeria pomeroyi; parameters: key to TA activity towards amino donor (3HMU): 0: no activity detected; conditions: for TA activity towards amino donor (3HMU): wildtype (S)-selective TA, 20 mM amino donor (2.5 mM α-MBA), 2.5 mM glyoxylate, CHES pH 9.5, 37° C., absorbance 498 nm; for TA_3HMU activity / acceptance of amino donor, in words: glycine oxidase assay, semiquantitative
Experimental: as §1, §2, §3, §4

[6] = tested on: ATA 117; experiment: as above; format: biochemical, Arthrobacter sp.; parameters: key: 0: no activity detected; conditions: wildtype TA; 20 mM amino donor (2.5 mM α-MBA), 2.5 mM glyoxylate, CHES pH 9.5, 37° C., absorbance 498 nm
Experimental: as §1, §2, §3, §4

[7] = tested on: AspFum; experiment: as above; format: biochemical, Aspergillus fumigatus; parameters: key: 0: no activity detected; conditions: wildtype (R)- TA; 20 mM amino donor (2.5 mM α-MBA), 2.5 mM glyoxylate, CHES pH 9.5, 37° C., absorbance 498 nm
Experimental: as §1, §2, §3, §4

[8] = tested on: Vfl; experiment: as above; format: biochemical, Vibrio fluvialis JS17; parameters: key: 0: no activity detected; conditions: wildtype TA; 20 mM amino donor (2.5 mM α-MBA), 2.5 mM glyoxylate, CHES pH 9.5, 37° C., absorbance 498 nm
Experimental: as §1, §2, §3, §4

[9] = tested on: MycVan; experiment: as above; format: biochemical, Mycobacterium vanbaalenii; parameters: key: 0: no activity detected; conditions: wildtype TA; 20 mM amino donor (2.5 mM α-MBA), 2.5 mM glyoxylate, CHES pH 9.5, 37° C., absorbance 498 nm
Experimental: as §1, §2, §3, §4

[10] = on line nanofiltration (Desal-DK membrane) coupled with enzymatic reaction; format: biochemical; conditions: after 1.5 h, BA manually diafiltrated (40 mM)
Experimental: Diafiltration depends on the permeate flow rate since it occurs at the same rate of permeation. Therefore, reaction and permeation rates are to be matched. When solution of high concentrated substrate (BA 200 mM in DMSO) was subjected to diafiltration, BA was accumulating in the enzymatic tank 6 (FIG. 20).
Permeate flux was very low, therefore BA was manually diafiltrated (40 mM). After 1.5 h, 18% BA was converted.

CC(N)CCc1ccccc1 (centres unmarked) [1M3P, 1-methyl-3-phenylpropylamine]
additional product formation ([1]; NF-2, DuraMem® 200, 20 bar): 15%

CC(=O)c1ccccc1 [1a, acetophenone]
product formation from ketosubstrate with HMW amino donors [2]: very low product formation

CC(=O)c1ccccc1Br [1b, ortho-bromoacetophenone]
product formation from ketosubstrate with HMW amino donors [2]: very low product formation

NCCCNCCNCCCN [AD 1, 1,2-bis(3-aminopropylamino)ethane]
TA activity towards amino donor (3FCR) [3]: 0
TA activity towards amino donor (AspOry) [4]: 0
TA activity towards amino donor (3HMU) [5]: 0
TA activity towards amino donor (ATA 117) [6]: 0
TA activity towards amino donor (AspFum) [7]: 0
TA activity towards amino donor (Vfl) [8]: 0
TA activity towards amino donor (MycVan) [9]: 0

NCCCN1CCN(CCCN)CC1 [AD 2, 1,4-Bis(3-aminopropyl)piperazine]
TA_3HMU activity / acceptance of amino donor, in words [5]: high activity
TA activity towards amino donor (AspFum) [7]: 0
TA activity towards amino donor (MycVan) [9]: 0

NCCNC(=O)CCN(CCC(=O)NCCN)CCN(CCC(=O)NCCN)CCC(=O)NCCN [AD 5]
TA activity towards amino donor (3FCR) [3]: 0
TA activity towards amino donor (AspOry) [4]: 0
TA activity towards amino donor (3HMU) [5]: 0
TA activity towards amino donor (ATA 117) [6]: 0
TA activity towards amino donor (AspFum) [7]: 0
TA activity towards amino donor (Vfl) [8]: 0
TA activity towards amino donor (MycVan) [9]: 0

CC(=O)CCc1ccccc1 [BA, benzylacetone]
BA converted [10]: 18%
additional BA converted ([1]; 16 h after 5 mM substrate addition, NF reaction mixture and control (Reaction_2, Control-Reaction_2)): ~17%
BA further converted ([1]; Control-reaction_1, following 6 h, without filtration): 2%
unreacted substrate lost in the permeate stream ([1]; Desal-DK): ~58%
additional substrate conversion ([1]; NF-1, 6 h nanofiltration, Desal DK, 20 bar): 10%
BA converted ([1]; Reaction_1, 16 h, 10 mM BA, 250 mM AD 6, 2 mg/mL TA_v2): ~55%
product formation from ketosubstrate with HMW amino donors [2]: qualitatively detected

CC(C)N [IPA, isopropyl amine, reference compound]
TA_3HMU stability in presence of amine donor ([2]; 250 mM amine donor (25-fold excess), 10 mM BA, 3.125 mg/mL enzyme, pH 9.5, 30° C.): fast inactivated

CC(N)c1ccccc1 (stereo not drawn) [α-MBA, 1-phenylethylamine, reference compound]
TA activity towards amino donor (AspOry) [4]: 0
TA activity towards amino donor (MycVan) [9]: 0

(highly flexible) poly(ethylene glycol) bis (3-aminopropyl) [AD 7]
TA activity towards amino donor (AspOry) [4]: 0
TA_3HMU activity / acceptance of amino donor, in words [5]: high activity
TA activity towards amino donor (AspFum) [7]: 0
TA activity towards amino donor (Vfl) [8]: 0
TA activity towards amino donor (MycVan) [9]: 0

O,O′-bis(2-aminopropyl) polypropylene glycol-block-polyethylene glycol-block-polypropylene glycol [AD 6]
TA_3HMU activity / acceptance of amino donor, in words [5]: broadly comparable to those achieved with the positive control
TA_3HMU activity / acceptance of amino donor, in words ([5]; listed as PEG-C): best acceptance
BA conversion ([2]; 10 mM BA): 51%

Poly(propylene glycol) bis(2-aminopropyl ether) [AD 3]
TA_3HMU activity / acceptance of amino donor, in words [5]: broadly comparable to those achieved with the positive control
TA_3HMU activity / acceptance of amino donor, in words ([5]; listed as PEG-A): best acceptance
BA conversion ([2]; 10 mM BA): 45%
